In one series the test system is psoriasis. The method, then:
This phase I Clinical and Pharmacokinetic study was designed to determine the safety of Kahalalide F administered as a weekly infusion over 1 hour in patients with solid tumours. This trial was addressed to any solid tumours and was designed as a classical escalation. The patient was a patient with a psoriasis history since more than 40 years.

For series [1] the following is noted: cited from earlier work.
The test system of a further series is solid tumour cell lines. As to conditions: preclinical studies, in vitro; cited from earlier work.

SMILES strings stand for the structures.

For `C/C=C1\NC(=O)[C@H](Cc2ccccc2)NC(=O)[C@@H](C(C)C)NC(=O)[C@@H](C(C)CC)NC(=O)[C@H](NC(=O)[C@H](NC(=O)[C@H](CCCN)NC(=O)[C@H]2CCCN2C(=O)[C@H](NC(=O)[C@@H](NC(=O)C(NC(=O)[C@H](NC(=O)CCCC(C)C)C(C)C)[C@@H](C)O)C(C)C)C(C)C)C(C)CC)C(C)OC(=O)[C@H](C(C)C)NC1=O` (stereo partly shown) [kahalalide F], the “psoriasic symptoms after the first infusion” value in the series on psoriasis (one patient, severe psoriasis, 650 μg/m^2 weekly iv infusion over 1 hour, after first infusion) is on record as “quick improvement of the psoriasic symptoms”. The “remission of the cutaneous plaques with the following infusions” value with psoriasis (same patient, 650 μg/m^2 weekly, total of 7 infusions) is on record as “nearly complete remission of the cutaneous plaques”. The “psoriasis status after end of treatment” value in the series with psoriasis (same patient, two months after the last dose) is “still in a nearly complete remission situation”. Also, the “maximum tolerated dose (MTD)” value in series [1] (female mice, single bolus iv injection) is 0.28 mg/kg. Moreover, the “acute toxicity on repeated administration” value in series [1] (mice, 280 μg/kg once daily times five) was “without any apparent evidence of acute toxicity”. Besides, in series [1] (mice, single iv doses just above MTD, signs of neurotoxicity followed by death), the “toxicity of single doses just above the MTDiv” value was “extremely toxic”. In addition, the “activity against solid tumour cell lines” value in the series on solid tumour cell lines is “significant activity”.

The values above are taken from patent US7323444B2, “Use of kahalalide compounds for the manufacture of a medicament for the treatment of psoriasis” (Pharma Mar, S.A.U., priority 2003, dated 2008).
